Data from US8227424B2, “Collagen peptide, dipeptide and malady inhibitor” (Nitta Gelatin Inc., priority 2008, dated 2012).
Square brackets hold non-standard residues; d marks the D form. Ends that are not written are not given here. Peptide text beside a SMILES is read from it. Hyp = O=C(O)[C@@H]1C[C@@H](O)CN1

Experiments:
in vivo = conditions: male, Wister, rat, po, 215 nmol/10 mL
Procedure: (§1) Wister strain male rats (170 g) were caused to go on a fast of one night and then subjected to experiments.
(§2) As a test method, a cannula was equipped to a heart and portal vein of each rat, and one-directional perfusion was carried out. The perfusion liquid being used was prepared in a way that to a Krebs-Ringer bicarbonate solution (KRB solution, pH 7.4) comprising 9.0 g of NaCl, 8 mL of 5.75% KCl, 2 mL of 10.55% KH2PO4, 2 mL of 19% MgSO4, 2.73 g of NaHCO3, 3.43 g of glucose and 1255 mL of water, there was added 10 g of bovine serum albumin, 0.5 mL of dexamethasone (0.123 mg/mL) and 0.5 mL of noradrenaline (0.024 mg/mL) relative to 500 mL of the aforementioned KRB solution.
(§3) An amount of 0.5 mL of 30% sulfosalicylic acid was added to 5.0 mL of perfusion sample liquid taken from portal vein, and the resultant mixture was vigorously stirred and then left in a refrigerator for one night. This sample was centrifuged at 3000 rpm for 10 minutes to remove protein.
(§4) Furthermore, 3.0 mL of the aforementioned centrifugal supernatant was weighed out and placed into a screw opening test tube, and thereto an equivalent of concentrated hydrochloric acid was added to carry out hydrolysis at 110° C. for 24 hours. Concentration to dryness was carried out with an evaporator to remove hydrochloric acid, and then the residue was dissolved into 5 mL of distilled water, and thereto several drops of saturated lithium hydroxide solution were added to adjust pH to the range of 5 to 7, and the volume was adjusted to 10 mL. […] A value obtained by subtracting the free type Hyp amount before hydrolysis from the total Hyp amount after hydrolysis is a peptide-form Hyp amount.
(§5) Analysis of the dipeptides in the perfusion liquid was carried out by reversed-phase HPLC analysis. As HPLC apparatus, LCSS-905 system produced by JASCO Corporation comprising a liquid-feeding pump, a decassa, an autosamplor, a column oven, ultraviolet spectrophotometer, a printer and a system controller was used. As the reversed-phase column, Nova Pak C18 (3.9×150 mm) was used.
(§6) A linear-gradient moving bed of a 0.1% TFA-containing acetonitrile-water system was used, the injection amount of the sample was 70 μL, and the flow rate was 1 mL/min.
(§7) As HPLC apparatus, U980HPLC (produced by JASCO Corporation) was used. This apparatus was equipped with an ODS (C18) column (Mightysil RP-18, 2×250 mm, produced by Kanto Chemical Co Ltd). The moving bed solvent was a 0.2% formic acid-containing acetonitrile-water system, and the concentration was raised from 0% to 40% acetonitrile by linear gradient in 40 minutes, and washing was carried out with 100% acetonitrile for 10 minutes. The injection amount of the sample was 10 μL, and the column temperature was 40° C.
(§8) The MS analysis was carried out in accordance with an MS/MS system with a Quattro LC mass spectrophotometer (Micromass, Manchester, UK) by a Multiple Reaction Monitoring method of 4 channels. That is to say, an eluate from the HPLC was monitored by m/z being [M+H]^+ and m/s of its fragment ion species.

[1] = rat, in vivo
Procedure: as §1, §2, §3, §4, §5, §6, §7, §8

[2] = system: precursory cartilage cell stock ATDC5; assay: Evaluation Test 1-3: inhibition of degeneration of cartilage cells (ALP); type: cell-based; conditions: ATDC5, 2.5 mmol/L end concentration, after 5 days culture, control (blank) = 100
Procedure: The Hyp-Gly, a 1:1 mixture of the Hyp-Gly and the Pro-Hyp and a 1:1:1 mixture of the Hyp-Gly, the Pro-Hyp and the Ala-Hyp were used, and each dipeptide was added to a precursory cartilage cell stock ATDC5 culture liquid so as to be 2.5 mmol/L in end concentration. After 5 days from the culture, each inhibition activity of alkaline phosphatase (ALP) being a marker enzyme for hypertrophied cartilages and calcification was examined. In the same way, the ALP activity when using the other dipeptides (Pro-Hyp, Ala-Hyp, Leu-Hyp, Phe-Hyp, Ser-Hyp), the tripeptide (Pro-Hyp-Gly) and the amino acids (Pro, Hyp) was examined. Furthermore, as a control, the ALP activity when adding no peptide (blank) was also examined.

[3] = system: osteoclasts (primary mouse bone marrow cell culture); assay: Evaluation Test 1-1: osteoclast differentiation culture on plastic Petri dish (TRAP); type: cell-based; conditions: 625 μM end concentration, after 6 days culture, control (blank) = 100, n = 6
Procedure: The evaluation was carried out in accordance with Kobayashi Y. et al.'s osteoclast differentiation culture method [J. Bone Miner. Metab. (2004) 22: p. 318-328].
That is to say, the Hyp-Gly and a 1:1 mixture of the Hyp-Gly and the Pro-Hyp were used, and each of them was added to a primary mouse bone marrow cell culture liquid so as to be 625 μM in end concentration. After 6 days from the culture, each inhibition activity of tartaric acid resistant acid phosphatase (TRAP) being a marker enzyme was examined. In the same way, the TRAP inhibition activity when using the other dipeptides (Pro-Hyp, Ala-Hyp, Leu-Hyp, Phe-Hyp, Ser-Hyp), the tripeptide (Pro-Hyp-Gly) and the amino acids (Pro, Hyp) was examined. Furthermore, as a control, the TRAP inhibition activity when adding no peptide (blank) was also examined.

osteoclasts = assay: Evaluation Test 1-1: Pit assay, osteoclasts cultured on dentin slices; type: cell-based, mouse; conditions: control (blank) = 100, n = 6; for Relative number (%) of TRAP positive multinucleate giant cells (osteoclasts) in culture on dentin slices: culture about 1 week on dentin slices; for Relative number (%) of Pit: number of absorption pits on dentin slices, culture about 1 week
Procedure: In addition, the degree of inhibition of differentiation and activation of osteoclasts by the various peptides and amino acids was evaluated by the following Pit assay. That is to say, the Pit assay where osteoclasts were cultured on […] was carried out in accordance with Kakudo S, et al. (1996). J. Bone Miner. Metab. 14: 129-136, specifically, as follows.
Precursory cells of osteoclasts derived from young mouse […] were freeze-preserved at −80° C. together with a bone marrow stroma cells-containing suspension in the presence of 10% DMSO, thereby making matured osteoclasts extinct.
These cells of 2.0×10^5 in number were seeded into each well of a 96-well plate where dentin slices were set, and each peptide to be tested was added to the culture liquid, and culture was carried out at 37° C. in 5% CO2 for about 1 week. Thereafter, cells were removed from the dentin slices by a silicon-made rubber POLICEMAN, and then the dentin slices were dyed with an […] for several minutes. Hereupon, the number of TRAP dyeing positive multinucleate giant cells (osteoclasts) was counted by the TRAP dyeing, and the number relative to the number of cells in the control (blank) was calculated. Thereafter, the Pit number (number of absorption pits) by osteoclasts was counted under a microscope, and the degree of inhibition of activity of osteoclasts by each peptide to be tested was indicated by the ratio relative to the blank (control).

[4] = system: osteoblast stock MC3T3-E1; assay: Evaluation Test 1-2: promotion of differentiation and activation of osteoblasts (ALP); type: cell-based; conditions: MC3T3-E1, 2.5 mmol/L end concentration, after 10 days culture, control (blank) = 100
Procedure: Each of dexamethasone (end concentration: 1 nmol/L), β-glycerophosphoric acid (end concentration: 5 mmol/L), and ascorbic acid (end concentration: 100 μg/mL) was added to an osteoblast stock MC3T3-E1 culture liquid, and then the Hyp-Gly and a 1:1 mixture of the Hyp-Gly and the Pro-Hyp were used, and each of them was added to the aforementioned culture liquid so as to be 2.5 mmol/L in end concentration. After 10 days from the culture, each promotion activity of alkaline phosphatase (ALP) being a marker enzyme for differentiation and calcification of osteoblasts was examined. In the same way, the ALP promotion activity when using the other dipeptides (Pro-Hyp, Ala-Hyp, Leu-Hyp, Phe-Hyp, Ser-Hyp), the tripeptide (Pro-Hyp-Gly) and the amino acids (Pro, Hyp) was examined. Furthermore, as a control, the ALP promotion activity when adding no peptide (blank) was also examined.

[5] = system: precursory cartilage cell stock ATDC5; assay: Evaluation Test 2-2: ALP inhibition activity of Pro-Hyp and comparisons; type: cell-based; conditions: ATDC5, 2.5 mM, after 5 days culture, N group = 1.0
Procedure: The aforementioned PC (PC group), FC (FC group) and PC-CA (PC-CA group) were used, and each collagen peptide was added to a precursory cartilage cell stock ATDC5 culture liquid so as to be 0.1% in end concentration. After 5 days from the culture, each inhibition activity of alkaline phosphatase (ALP) being a marker enzyme for hypertrophied cartilages and calcification was examined. For comparison, the ALP inhibition activity when adding no peptide (N group), the ALP inhibition activity when using peptone (Pe group) of 0.1% in end concentration, and the ALP inhibition activity when using the aforementioned PC-Cont (PC-Cont group) and PC-CA-Cont (PC-CA-Cont group) were also examined.
The ALP inhibition activity was examined in the same way as of evaluation test 2-1 except that: a dipeptide Pro-Hyp as synthesized by a solid-phase method (produced by PH Japan) ([Pro-Hyp] group) was used, the amount of its addition was changed to 2.5 mM and, for comparison, no peptide was added (N group) or glycine being a free amino acid (Gly group), proline being a free amino acid (Pro group), hydroxyproline being a free amino acid (Hyp group), a free amino acid mixture of proline and hydroxyproline ([Pro+Hyp] group), a free amino acid mixture of glycine, proline and hydroxyproline ([Gly+Pro+Hyp] group), and a tripeptide Pro-Hyp-Gly as synthesized by a solid-phase method (produced by PH Japan) ([Pro-Hyp-Gly] group) were used.

Row | Compound | level at time molar (in vivo) [µM] | Intestine absorption, in words [1] | Relative value (%) of ALP [2] [%] | Relative area (%) of TRAP positive multinucleate giant cells (osteoclasts) in culture on plastic Petri dish [3] [%] | Relative number (%) of TRAP positive multinucleate giant cells (osteoclasts) in culture on plastic Petri dish [3] [%] | Relative number (%) of TRAP positive multinucleate giant cells (osteoclasts) in culture on dentin slices (osteoclasts) [%] | Relative number (%) of Pit (osteoclasts) [%] | Relative value (%) of ALP [4] [%] | Relative ALP activity [5]
1 | N[C@@H](CO)C(=O)N1C[C@H](O)C[C@H]1C(=O)O [Comparative Example 3, Ser-Hyp] (H-Ser-[Hyp]-OH; N-terminus and C-terminus assumed) | 0.7 |  |  |  |  |  |  |  | 
2 | O=C(O)CNC(=O)[C@@H]1C[C@@H](O)CN1 [Example 1, Hyp-Gly] (H-[Hyp]-Gly-OH; N-terminus and C-terminus assumed) | 9.8 | absorbed into intestine extremely rapidly and stably (without being decomposed into amino acids) |  |  |  |  |  |  | 
3 | Phe-Hyp [Comparative Example 2] |  |  | 109 ± 11 | 118 ± 21 | 119 ± 16 | 98 ± 11 | 109 ± 15 | 109 ± 11 | 
4 | Pro-[Hyp]-Gly [Comparative Example 4] |  |  | 84 ± 14 | 113 ± 11 | 109 ± 15 | 91 ± 11 | 97 ± 13 | 103 ± 22 | 0.8 ± 0.01
5 | O=C(O)[C@@H]1C[C@@H](O)CN1 [Comparative Example 6, hydroxyproline] |  |  | 101 ± 1 | 117 ± 13 | 126 ± 4 | 141 ± 9 | 131 ± 11 | 103 ± 25 | 1.0 ± 0.01
6 | Leu-Hyp [Comparative Example 1] |  |  | 93 ± 12 | 83 ± 27 | 88 ± 22 | 101 ± 12 | 91 ± 11 | 92 ± 12 | 
7 | O=C(O)[C@@H]1CCCN1 [Comparative Example 5, Proline] |  |  | 98 ± 10 | 125 ± 69 | 119 ± 44 | 119 ± 20 | 121 ± 23 | 97 ± 15 | 0.98 ± 0.1
8 | NCC(=O)O [Gly, glycine] |  |  |  |  |  |  |  |  | 1.1 ± 0.01
9 | C[C@H](N)C(=O)N1C[C@H](O)C[C@H]1C(=O)O [Referential Example 1-2, Ala-Hyp] (H-Ala-[Hyp]-OH; N-terminus and C-terminus assumed) | 1.2 |  |  |  |  |  |  |  | 
10 | O=C(O)[C@@H]1C[C@@H](O)CN1C(=O)[C@@H]1CCCN1 [Referential Example 1-1, Pro-Hyp] (H-Pro-[Hyp]-OH; N-terminus and C-terminus assumed) | 21.3 | absorbed into intestine extremely rapidly and stably (without being decomposed into amino acids) |  |  |  |  |  |  | 
